Measured values published in patent US8226983B2, “Method for producing pulverized organic compound particle” (Activus Pharma Co., Ltd., priority 2007, dated 2012).

Key:
[1] = Average particle diameter by BET type specific surface area analyzer; type: physicochemical; conditions: for average particle diameter of the resulting particles: after pulverization; for average particle diameter of the resulting particles / average particle diameter of the starting organic compound: BET method; for average particle diameter of the starting organic compound: before pulverization; for Ave. Diameter after pulverization (nm): as Example 3
Text: The average particle diameter of the particles can be measured by conventionally used particle size measurement techniques such as a microscopic method, a screening method, a Coulter counter method, a sedimentation method, an air permeation method, and a gas adsorption method, but the average particle diameter according to the present invention means the average particle diameter measured according to a gas adsorption method. The method is based on the principle that when molecules or ions having a known size are adsorbed to the surface of the particles, the particles adsorb the molecules or ion according to the specific surface area. Thus, the method is a method of determining the specific surface area using an adsorption isotherm equation or an isotherm, and calculating the average particle diameter, and the method is excellent as a method for measuring the average particle diameter of finely pulverized particles. Next, the present invention will be described in more detail by way of Examples, but the present invention is not intended to be limited to the following Examples. The measurement of the average particle size was all carried out using a BET type specific surface area analyzer (Macsorb type MH-1201, manufactured by Mountech Co., Ltd.).

[2] = Crystallinity by X-ray diffraction; type: physicochemical; conditions: D8 Discover X-ray diffraction apparatus
Text: Each crystallinity of the quinolinone derivative before being finely pulverized, the quinolinone derivative obtained in Example 8 and the quinolinone derivative obtained in Comparative Example 8, was examined using an X-ray diffraction measurement apparatus (D8 Discover, manufactured by Bruker AXS, Inc.

Compound | average particle diameter of the resulting particles [1] | average particle diameter of the starting organic compound [1] | also measured
COc1ccc2c(c1)c(CC(=O)O)c(C)n2C(=O)c1ccc(Cl)cc1 [Comparative Example 1, indomethacin] | 1,060 nm | – | –
CC1=C(/C=C/C(C)=C/C=C/C(C)=C/C=C/C=C(C)/C=C/C=C(C)/C=C/C2=C(C)CCCC2(C)C)C(C)(C)CCC1 [Comparative Example 3, β-carotene] | 570 nm | – | –
CCC(=O)OCC(=O)[C@@]1(OC(=O)CC)[C@@H](C)C[C@H]2[C@@H]3CCC4=CC(=O)C=C[C@]4(C)[C@@]3(Cl)[C@@H](O)C[C@@]21C [Comparative Example 5, beclometasone dipropionate] | 730 nm | – | –
CCCCCCCCOc1c(O)c2ccc(NC(=O)C=Cc3cc(OC)c(O)c(OC)c3)cc2n(C)c1=O [Comparative Example 6, 7-(3,5-dimethoxy-4-hydroxycinnamoylamino)-3-octyloxy-4-hydroxy-1-methyl-2(1H)-quinolinone] | 620 nm | – | –
CCCCCCCCOc1c(O)c2ccc(NC(=O)C=Cc3cc(OC)c(O)c(OC)c3)cc2n(C)c1=O [Comparative Example 7, 7-(3,5-dimethoxy-4-hydroxycinnamoylamino)-3-octyloxy-4-hydroxy-1-methyl-2(1H)-quinolinone] | 128 nm | – | –
Clc1ccc(COC(Cn2ccnc2)c2ccc(Cl)cc2Cl)c(Cl)c1 (stereo not drawn) [Comparative Example 8, miconazole] | 651 nm | – | crystallinity (X-ray diffraction) [2]: amorphous
CCC(=O)O[C@]1(C(=O)SCF)[C@H](C)C[C@H]2[C@@H]3C[C@H](F)C4=CC(=O)C=C[C@]4(C)[C@@]3(F)[C@@H](O)C[C@@]21C [Comparative Example 10, fluticasone propionate] | 438 nm | – | –
COc1cc(C(=O)NS(=O)(=O)c2ccccc2C)ccc1Cc1cn(C)c2ccc(NC(=O)OC3CCCC3)cc12 [Comparative Example 13, zafirlukast] | 558 nm | – | –
CC(C)Cc1ccc(C(C)C(=O)O)cc1 (stereo not drawn) [Comparative Example 14, ibuprofen] | 1,900 nm | – | –
CCCCCCCCOc1c(O)c2ccc(NC(=O)C=Cc3cc(OC)c(O)c(OC)c3)cc2n(C)c1=O [Example 8, 7-(3,5-dimethoxy-4-hydroxycinnamoylamino)-3-octyloxy-4-hydroxy-1-methyl-2(1H)-quinolinone] | – | – | crystallinity (X-ray diffraction) [2]: crystalline structures
CCC(=O)O[C@]1(C(=O)SCF)[C@H](C)C[C@H]2[C@@H]3C[C@H](F)C4=CC(=O)C=C[C@]4(C)[C@@]3(F)[C@@H](O)C[C@@]21C [Example 17, fluticasone propionate] | 114 nm | – | –
CCC(=O)O[C@]1(C(=O)SCF)[C@H](C)C[C@H]2[C@@H]3C[C@H](F)C4=CC(=O)C=C[C@]4(C)[C@@]3(F)[C@@H](O)C[C@@]21C [Example 18, fluticasone propionate] | 108 nm | – | –
CCC(=O)O[C@]1(C(=O)SCF)[C@H](C)C[C@H]2[C@@H]3C[C@H](F)C4=CC(=O)C=C[C@]4(C)[C@@]3(F)[C@@H](O)C[C@@]21C [Example 19, fluticasone propionate] | 103 nm | – | –
CCC(=O)O[C@]1(C(=O)SCF)[C@H](C)C[C@H]2[C@@H]3C[C@H](F)C4=CC(=O)C=C[C@]4(C)[C@@]3(F)[C@@H](O)C[C@@]21C [Example 20, fluticasone propionate] | 94 nm | – | –
CCC(=O)O[C@]1(C(=O)SCF)[C@H](C)C[C@H]2[C@@H]3C[C@H](F)C4=CC(=O)C=C[C@]4(C)[C@@]3(F)[C@@H](O)C[C@@]21C [Example 21, fluticasone propionate] | 92 nm | – | –
CCC(=O)O[C@]1(C(=O)SCF)[C@H](C)C[C@H]2[C@@H]3C[C@H](F)C4=CC(=O)C=C[C@]4(C)[C@@]3(F)[C@@H](O)C[C@@]21C [Example 22, fluticasone propionate] | 70 nm | – | –
CCC(=O)O[C@]1(C(=O)SCF)[C@H](C)C[C@H]2[C@@H]3C[C@H](F)C4=CC(=O)C=C[C@]4(C)[C@@]3(F)[C@@H](O)C[C@@]21C [Example 23, fluticasone propionate] | 109 nm | – | –
CCC(=O)OCC(=O)[C@@]1(OC(=O)CC)[C@@H](C)C[C@H]2[C@@H]3CCC4=CC(=O)C=C[C@]4(C)[C@@]3(Cl)[C@@H](O)C[C@@]21C [beclometasone dipropionate] | – | 1,820 nm | –
CC(=O)OCC(=O)[C@@]1(O)CC[C@H]2[C@@H]3CCC4=CC(=O)CC[C@]4(C)[C@H]3C(=O)C[C@@]21C [cortisone acetate] | – | 1,060 nm | Ave. Diameter before pulverization (nm) ([1]; cortisone acetate, Example 24): 1,060 nm; Ave. Diameter after pulverization (nm) ([1]; cortisone acetate, polyol Diethylene glycol): 480 nm; Ave. Diameter after pulverization (nm) ([1]; cortisone acetate, polyol Glycerin): 260 nm; Ave. Diameter after pulverization (nm) ([1]; cortisone acetate, polyol Polyethylene glycol): 590 nm; Ave. Diameter after pulverization (nm) ([1]; cortisone acetate, polyol Propylene glycol): 450 nm
CCC(=O)O[C@]1(C(=O)SCF)[C@H](C)C[C@H]2[C@@H]3C[C@H](F)C4=CC(=O)C=C[C@]4(C)[C@@]3(F)[C@@H](O)C[C@@]21C [fluticasone propionate] | – | 7,850 nm | –
CC(C)Cc1ccc(C(C)C(=O)O)cc1 (stereo not drawn) [ibuprofen] | – | 18,050 nm | –
COc1ccc2c(c1)c(CC(=O)O)c(C)n2C(=O)c1ccc(Cl)cc1 [indomethacin] | – | 3,980 nm | –
Clc1ccc(COC(Cn2ccnc2)c2ccc(Cl)cc2Cl)c(Cl)c1 (stereo not drawn) [miconazole] | – | 10,900 nm | –
CCCCCCCCOc1c(O)c2ccc(NC(=O)C=Cc3cc(OC)c(O)c(OC)c3)cc2n(C)c1=O [quinolinone derivative, 7-(3,5-dimethoxy-4-hydroxycinnamoylamino)-3-octyloxy-4-hydroxy-1-methyl-2(1H)-quinolinone] | – | 1,280 nm | crystallinity (X-ray diffraction) [2]: crystalline structures
COc1cc(C(=O)NS(=O)(=O)c2ccccc2C)ccc1Cc1cn(C)c2ccc(NC(=O)OC3CCCC3)cc12 [zafirlukast] | – | 5,347 nm | –
CC1=C(/C=C/C(C)=C/C=C/C(C)=C/C=C/C=C(C)/C=C/C=C(C)/C=C/C2=C(C)CCCC2(C)C)C(C)(C)CCC1 [β-carotene] | – | 1,720 nm | –
